Consider 7 compounds from patent EP2305274A1, “Use of WNT stimulators for treating demyelinating diseases” (Centre National de la Recherche Scientifique (CNRS), priority 2009, dated 2011).

Read-outs that look alike come from different tables or passages of the source.

For assay [1], the system named is GSK3. Conditions: cited from earlier work.
Assay [2] has as its system MSC80 cells. Nature of the assay: Western blot of MPZ, PMP22 and β-catenin proteins in MSC80 cells. It counts as cell-based, mouse. Conditions: SB216763 10 µM, after 3h, lasted until 24h. An excerpt: Western blot analysis confirmed the stimulation of MPZ and PMP22 expression. […] This difference may be due to specific mRNA and protein half-life.
The increase in PMP22 protein expression was timedependent.

[3] abbreviates: GSK3 inhibitors, see Meijer L et al, Trends in Pharmacological Sciences 2004.

As to `OCCCNc1cc(-c2ccnc(Nc3cccc(Cl)c3)n2)ccn1` [CGP60474, 3-{4-[2-(3-chlorophenylamino)-pyrimidin-4-yl]-pyridin-2-yl-amino}-propanol], the IC50 – broadly, the point on the concentration scale where inhibition reaches its midpoint – in assay [1] (setting [3]) is < 100 nM.

Take `Cc1c[nH]c(-c2cnc(NCCNc3ccc(C#N)cn3)nc2-c2ccc(Cl)cc2Cl)n1` [CHIR99021]: in assay [1] (setting [3]), the IC50 is […].

For `Cn1cc(C2=C(c3ccc(Cl)cc3Cl)C(=O)NC2=O)c2ccccc21` [SB216763], in assay [2], the “expression of MPZ protein (Western blot)” value is reported as “enhanced”, the “expression of PMP22 protein (Western blot)” value was “enhanced” and the “expression of β-catenin protein (Western blot)” value was “enhanced”. Moreover, the IC50 in assay [1] (setting [3]) was […].

On to `CC(=O)O/N=C1/C(=C2/C(=O)Nc3cc(Br)ccc32)Nc2ccccc21` [6-bromoindirubin-3'acetoxime, (2'Z,3'E)-6-Bromoindirubin-3'-acetoxime], for which, in assay [1] (setting [3]), the IC50 was < 100 nM.

For CHIR98014, in assay [1], the IC50 is < 100 nM.

As for `Nc1cccc(-c2cc3c(Oc4cccc(O)c4)ncnc3[nH]2)c1` [TWS119], the IC50 in assay [1] (setting [3]) is < 100 nM.

For the compound `[H]/N=C(/N)SCCCn1cc(C2=C(c3cn(C)c4ccccc34)C(=O)NC2=O)c2ccccc21` [Ro318220], the IC50 in assay [1] (setting [3]) was < 100 nM.
